Test results published in PMC7497641, “Neurotropic activity and safety of methylene-cycloalkylacetate (MCA) derivative 3-(3-allyl-2-methylenecyclohexyl) propanoic acid” (ACS Chemical Neuroscience, 2020).
pEC50, pIC50: −log10 of the molar value.

Assays:
[1] = test system: neurons from the spinal cord; test: Spinal cord neuron survival; format: cell-based, rat; settings: in the presence of HU-MCA-13; 48 h in culture
Procedure: We also examined whether HU-MCA-13 would promote the survival of neurons from the spinal cord, by counting the number of neurons remaining after 48 h in culture. From our counts we estimated that 58 ± 10% of the neurons present at 3 h after plating survived for 48 h in the presence of HU-MCA-13, compared with only 35 ± 5% for neurons cultured without HU-MCA-13.
Spinal cords were isolated from adult rats (4–6 months old), and the meninges were removed from the spinal cord. The spinal cord was then cut into small pieces and collected in cold Hibernate A (Brainbits, Springfield, IL, USA), glutamine (0.5 mM), and B27 (Invitrogen, Carlsbad, CA). Briefly, dissected pieces of adult rat spinal cord tissue were maintained in phosphate-buffered saline (PBS) without Ca^2+ and Mg^2+ and pooled together and transferred to an enzymatic dissociation media containing 20 IU/ml papain in Earle’s balanced salt solution (Worthington Biochemical, Freehold, NJ) and incubated for 30 min at 37 °C. […] Neurite outgrowth was measured and presented as mean length of a neurite (microns). To measure neuronal survival, 450 cells were counted in 10 randomly chosen microscope fields of a known area in each of the three dishes per condition using a 20× objective and phase-contrast optics. […]

[2] = target: Adrenergic Receptor α1A (ADRA1A) (Homo sapiens, UniProt P35348); test: SAFETYscan GPCR Calcium Flux; format: cell-based
[3] = target: Kv7.1/KCNE Potassium voltage-gated channel (KvLQT1/minK) (Homo sapiens, UniProt P51787); test: SAFETYscan Ion channel assay; format: cell-based; settings: read-out: RC50 (the source's name)
[4] = target: T1, Rho Associated Coiled-Coil Containing Protein Kinase 1 (serine-threonine kinase) (ROCK1) (Homo sapiens, UniProt Q13464); test: SAFETYscan KINOMEscan binding assay; settings: Inhibitor
T1 construct: host or cells: E. coli BL21-derived host (T7 phage) or HEK-293

[5] = target: T2, 5-Hydroxy-tryptamine (Serotonin) Receptor 3A (HTR3A) (Homo sapiens, UniProt P46098); test: SAFETYscan Ion channel assay; format: cell-based
T2 construct: host or cells: unnamed DiscoverX cell line

[6] = target: Histamine Receptor H1 (HRH1) (Homo sapiens, UniProt P35367); test: SAFETYscan GPCR Calcium Flux; format: cell-based; settings: read-out: RC50 (the source's name)
[7] = target: T3, Dopamine transporter (DAT) (Homo sapiens, UniProt Q01959); test: SAFETYscan Transporter assay; format: cell-based
T3 construct: host or cells: unnamed DiscoverX cell line

[8] = target: Muscarinic acetylcholine Receptor M1 (CHRM1) (Homo sapiens, UniProt P11229); test: cell-based; settings: Calcium Flux, read-out: RC50 (the source's name)
[9] = target: T4, Muscarinic acetylcholine Receptor M2 (CHRM2) (Homo sapiens, UniProt P08172); test: SAFETYscan GPCR cAMP; format: cell-based
T4 construct: host or cells: cAMP Hunter cell lines

[10] = target: T5, N-methyl-D-aspartate (NMDA) Glutamate Receptor 1A/2B (NMDAR (1A/2B)) (Homo sapiens, UniProt Q05586+Q13224); test: SAFETYscan Ion channel assay; format: cell-based
T5 construct: host or cells: unnamed DiscoverX cell line

[11] = target: Voltage-gated L-type calcium channel (CAV1.2) (Homo sapiens, UniProt Q13936); test: cell-based
[12] = target: T6, Serotonin transporter (SERT) (Homo sapiens, UniProt P31645); test: cell-based; settings: Blocker
T6 construct: host or cells: unnamed DiscoverX cell line

[13] = target: Adrenergic Receptor β2 (ADRB2) (Homo sapiens, UniProt P07550); test: SAFETYscan GPCR cAMP; format: cell-based
[14] = 10 μM, read-out: MCA-13 Max. Responce
[15] = read-out: RC50 (the source's name)

T1 sequence (Q13464 whole entry): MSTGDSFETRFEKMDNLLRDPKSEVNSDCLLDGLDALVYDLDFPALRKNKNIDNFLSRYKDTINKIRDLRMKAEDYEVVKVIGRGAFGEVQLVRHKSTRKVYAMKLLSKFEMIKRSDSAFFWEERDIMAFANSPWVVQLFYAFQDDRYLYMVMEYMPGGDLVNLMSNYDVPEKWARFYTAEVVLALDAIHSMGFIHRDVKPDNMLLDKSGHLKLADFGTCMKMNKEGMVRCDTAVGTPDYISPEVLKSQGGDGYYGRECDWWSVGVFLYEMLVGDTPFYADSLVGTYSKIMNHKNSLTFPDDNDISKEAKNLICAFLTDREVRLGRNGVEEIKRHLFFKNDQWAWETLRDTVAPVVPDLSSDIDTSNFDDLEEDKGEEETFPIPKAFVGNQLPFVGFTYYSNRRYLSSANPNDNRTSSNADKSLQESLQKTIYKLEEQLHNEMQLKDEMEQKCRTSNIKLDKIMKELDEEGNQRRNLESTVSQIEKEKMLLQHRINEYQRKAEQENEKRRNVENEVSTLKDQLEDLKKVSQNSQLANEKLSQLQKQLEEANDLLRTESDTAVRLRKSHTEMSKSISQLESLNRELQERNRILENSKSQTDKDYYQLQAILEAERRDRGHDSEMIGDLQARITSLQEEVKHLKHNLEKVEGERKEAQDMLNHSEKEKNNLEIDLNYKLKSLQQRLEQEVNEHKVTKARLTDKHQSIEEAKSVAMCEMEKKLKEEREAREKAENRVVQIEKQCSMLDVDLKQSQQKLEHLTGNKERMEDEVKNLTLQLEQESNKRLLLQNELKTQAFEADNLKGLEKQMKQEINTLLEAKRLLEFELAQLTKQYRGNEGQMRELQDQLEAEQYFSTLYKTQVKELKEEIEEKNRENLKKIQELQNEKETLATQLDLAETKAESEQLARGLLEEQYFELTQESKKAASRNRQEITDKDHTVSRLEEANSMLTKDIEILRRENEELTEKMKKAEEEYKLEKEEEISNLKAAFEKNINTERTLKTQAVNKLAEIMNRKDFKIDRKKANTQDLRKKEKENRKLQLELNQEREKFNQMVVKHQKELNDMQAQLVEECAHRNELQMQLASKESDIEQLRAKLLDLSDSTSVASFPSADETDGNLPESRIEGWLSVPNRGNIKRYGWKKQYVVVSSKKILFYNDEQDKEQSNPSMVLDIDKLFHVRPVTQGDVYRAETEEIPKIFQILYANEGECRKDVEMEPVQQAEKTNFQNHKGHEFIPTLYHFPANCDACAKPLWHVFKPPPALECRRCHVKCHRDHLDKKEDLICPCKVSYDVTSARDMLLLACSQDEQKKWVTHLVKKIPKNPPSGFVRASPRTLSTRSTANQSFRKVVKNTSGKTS
T5 sequence (Q13224 27-1484, other chains not shown): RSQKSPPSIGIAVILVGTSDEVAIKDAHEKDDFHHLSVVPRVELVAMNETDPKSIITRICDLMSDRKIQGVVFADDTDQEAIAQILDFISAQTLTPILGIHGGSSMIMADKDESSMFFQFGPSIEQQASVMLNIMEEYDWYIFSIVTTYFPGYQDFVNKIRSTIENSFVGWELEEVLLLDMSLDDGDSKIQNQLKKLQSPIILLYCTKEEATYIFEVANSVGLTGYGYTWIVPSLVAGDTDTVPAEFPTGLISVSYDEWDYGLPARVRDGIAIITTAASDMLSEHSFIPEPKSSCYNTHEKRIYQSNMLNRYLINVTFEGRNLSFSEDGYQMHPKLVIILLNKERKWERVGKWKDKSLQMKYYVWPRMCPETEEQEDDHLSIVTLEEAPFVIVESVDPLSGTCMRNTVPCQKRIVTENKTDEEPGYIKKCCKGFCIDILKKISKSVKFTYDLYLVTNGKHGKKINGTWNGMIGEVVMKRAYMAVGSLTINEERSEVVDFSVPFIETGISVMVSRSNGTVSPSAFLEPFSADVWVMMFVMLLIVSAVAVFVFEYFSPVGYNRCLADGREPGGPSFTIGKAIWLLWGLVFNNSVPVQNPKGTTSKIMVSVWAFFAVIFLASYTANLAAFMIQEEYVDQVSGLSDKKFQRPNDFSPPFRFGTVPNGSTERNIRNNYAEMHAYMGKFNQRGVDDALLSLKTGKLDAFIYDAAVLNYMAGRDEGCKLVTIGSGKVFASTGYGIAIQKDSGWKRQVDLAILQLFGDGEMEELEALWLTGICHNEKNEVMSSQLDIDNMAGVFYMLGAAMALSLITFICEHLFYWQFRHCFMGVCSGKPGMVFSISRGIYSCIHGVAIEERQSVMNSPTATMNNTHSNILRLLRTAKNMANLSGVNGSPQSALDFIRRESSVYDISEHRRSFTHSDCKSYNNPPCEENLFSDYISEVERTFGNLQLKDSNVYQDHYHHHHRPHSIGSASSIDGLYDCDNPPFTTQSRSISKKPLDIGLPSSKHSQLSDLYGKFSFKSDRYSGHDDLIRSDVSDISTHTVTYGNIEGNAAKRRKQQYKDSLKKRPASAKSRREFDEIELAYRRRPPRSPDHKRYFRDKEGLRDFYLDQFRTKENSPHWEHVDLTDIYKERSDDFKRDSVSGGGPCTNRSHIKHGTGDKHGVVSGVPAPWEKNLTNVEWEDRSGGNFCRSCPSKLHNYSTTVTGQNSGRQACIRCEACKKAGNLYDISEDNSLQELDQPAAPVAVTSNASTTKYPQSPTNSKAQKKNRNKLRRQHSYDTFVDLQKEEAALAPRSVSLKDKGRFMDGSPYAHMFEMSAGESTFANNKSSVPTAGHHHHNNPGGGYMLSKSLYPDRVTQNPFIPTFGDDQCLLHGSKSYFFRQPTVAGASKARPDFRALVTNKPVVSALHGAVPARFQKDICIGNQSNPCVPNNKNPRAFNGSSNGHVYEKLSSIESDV
T4 sequence (P08172 whole entry): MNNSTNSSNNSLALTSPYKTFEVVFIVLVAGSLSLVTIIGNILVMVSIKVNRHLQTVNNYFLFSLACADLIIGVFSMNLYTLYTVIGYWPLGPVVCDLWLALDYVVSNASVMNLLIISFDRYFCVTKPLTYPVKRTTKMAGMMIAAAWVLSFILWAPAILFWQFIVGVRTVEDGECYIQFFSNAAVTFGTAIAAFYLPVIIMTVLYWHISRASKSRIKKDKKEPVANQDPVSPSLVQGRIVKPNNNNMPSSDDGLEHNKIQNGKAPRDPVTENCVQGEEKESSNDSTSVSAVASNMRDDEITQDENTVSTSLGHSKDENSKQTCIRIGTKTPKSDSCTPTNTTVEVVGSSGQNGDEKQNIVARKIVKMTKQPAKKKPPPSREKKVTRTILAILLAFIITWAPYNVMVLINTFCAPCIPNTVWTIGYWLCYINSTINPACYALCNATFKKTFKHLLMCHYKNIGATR
T6 sequence (P31645 whole entry): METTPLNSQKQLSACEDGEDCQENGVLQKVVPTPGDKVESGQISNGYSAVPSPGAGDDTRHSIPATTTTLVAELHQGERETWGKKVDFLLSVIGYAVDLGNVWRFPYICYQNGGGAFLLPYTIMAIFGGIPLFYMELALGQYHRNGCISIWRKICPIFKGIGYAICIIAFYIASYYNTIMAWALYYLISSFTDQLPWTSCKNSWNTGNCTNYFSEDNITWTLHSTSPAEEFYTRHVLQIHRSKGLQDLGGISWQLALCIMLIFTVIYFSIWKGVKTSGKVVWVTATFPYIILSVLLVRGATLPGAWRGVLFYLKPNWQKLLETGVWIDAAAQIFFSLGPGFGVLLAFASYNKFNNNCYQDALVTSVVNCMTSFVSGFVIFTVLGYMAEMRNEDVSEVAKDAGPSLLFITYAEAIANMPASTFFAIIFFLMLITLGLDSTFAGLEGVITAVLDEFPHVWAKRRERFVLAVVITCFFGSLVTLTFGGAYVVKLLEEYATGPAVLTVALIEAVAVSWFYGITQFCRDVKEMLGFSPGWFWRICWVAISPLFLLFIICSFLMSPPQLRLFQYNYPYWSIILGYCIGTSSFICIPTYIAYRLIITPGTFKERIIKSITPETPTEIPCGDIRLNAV
T2 sequence (P46098 24-478): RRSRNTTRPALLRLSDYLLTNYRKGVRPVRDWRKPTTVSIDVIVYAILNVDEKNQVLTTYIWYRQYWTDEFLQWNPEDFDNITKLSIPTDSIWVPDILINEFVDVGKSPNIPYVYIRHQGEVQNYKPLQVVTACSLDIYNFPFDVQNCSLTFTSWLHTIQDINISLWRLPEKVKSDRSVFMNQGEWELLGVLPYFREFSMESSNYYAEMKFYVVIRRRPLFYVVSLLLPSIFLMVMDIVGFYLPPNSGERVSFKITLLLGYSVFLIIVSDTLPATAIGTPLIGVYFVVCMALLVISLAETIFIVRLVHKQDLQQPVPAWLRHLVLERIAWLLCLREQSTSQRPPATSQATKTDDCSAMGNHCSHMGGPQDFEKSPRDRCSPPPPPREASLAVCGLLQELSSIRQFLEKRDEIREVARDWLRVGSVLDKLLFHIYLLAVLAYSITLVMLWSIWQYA
Sequence of Adrenergic Receptor β2 (ADRB2) (P07550 whole entry): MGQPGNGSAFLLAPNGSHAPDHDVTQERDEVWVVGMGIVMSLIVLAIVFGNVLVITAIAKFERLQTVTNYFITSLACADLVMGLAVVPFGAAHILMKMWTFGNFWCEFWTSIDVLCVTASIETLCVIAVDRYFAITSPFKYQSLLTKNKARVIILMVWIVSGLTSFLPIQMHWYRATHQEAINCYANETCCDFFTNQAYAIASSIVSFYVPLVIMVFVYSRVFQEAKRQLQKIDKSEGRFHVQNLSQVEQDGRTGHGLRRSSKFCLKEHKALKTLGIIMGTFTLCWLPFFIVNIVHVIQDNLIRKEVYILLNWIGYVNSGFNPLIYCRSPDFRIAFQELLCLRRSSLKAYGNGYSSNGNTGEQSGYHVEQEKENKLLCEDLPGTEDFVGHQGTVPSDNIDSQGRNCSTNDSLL

With `C=CCC1CCCC(CCC(=O)O)C1=C` (stereo not drawn) [HU-MCA-13, 3-(3-allyl-2-methylenecyclohexyl)propanoic acid] the “neurons present at 3 h after plating that survived for 48 h” value [1] was 58 ± 10%, the pEC50 [2] was less than 5.00 and the pIC50 [2] was less than 5.00. The pIC50 ([3]; Blocker) was less than 5.00, the pEC50 ([3]; Opener) was less than 5.00 and the inhibition at 10 µM [4, 14] was 21.6%. It also gave a pIC50 [4, 15] of less than 5.00, a pEC50 [5] of less than 5.00 and a pIC50 [5] of less than 5.00. It also gave a pEC50 ([6]; Agonist) of less than 5.00, a pIC50 ([6]; Antagonist) of less than 5.00 and a pIC50 [7] of less than 5.00. For the same compound, the inhibition at 10 µM ([7]; 10 μM, Blocker, Transporter, read-out: MCA-13 Max. Responce) was 0%, the pEC50 ([8]; Agonist) was less than 5.00 and the pIC50 ([8]; Antagonist) was less than 5.00. The pEC50 [9] was less than 5.00, the pIC50 [9] was less than 5.00 and the pEC50 [10] was less than 5.00. For the same compound, the pIC50 [10] was less than 5.00, the pIC50 [11] was less than 5.00 and the inhibition at 10 µM [12, 14] was 15.4%. For the same compound, the pIC50 [12, 15] was less than 5.00, the pEC50 [13] was less than 5.00 and the pIC50 [13] was less than 5.00.
